Experimental data from BindingDB's records for doi:10.1021/jm9703911 (Allergan, 1997).

Columns and labels:
[1] = target: T1, Retinoic acid receptor alpha (Homo sapiens, UniProt P10276); assay: Inhibition of [3H]ATRA binding to baculovirus expressed RAR alpha receptor
T1 sequence (P10276 whole entry): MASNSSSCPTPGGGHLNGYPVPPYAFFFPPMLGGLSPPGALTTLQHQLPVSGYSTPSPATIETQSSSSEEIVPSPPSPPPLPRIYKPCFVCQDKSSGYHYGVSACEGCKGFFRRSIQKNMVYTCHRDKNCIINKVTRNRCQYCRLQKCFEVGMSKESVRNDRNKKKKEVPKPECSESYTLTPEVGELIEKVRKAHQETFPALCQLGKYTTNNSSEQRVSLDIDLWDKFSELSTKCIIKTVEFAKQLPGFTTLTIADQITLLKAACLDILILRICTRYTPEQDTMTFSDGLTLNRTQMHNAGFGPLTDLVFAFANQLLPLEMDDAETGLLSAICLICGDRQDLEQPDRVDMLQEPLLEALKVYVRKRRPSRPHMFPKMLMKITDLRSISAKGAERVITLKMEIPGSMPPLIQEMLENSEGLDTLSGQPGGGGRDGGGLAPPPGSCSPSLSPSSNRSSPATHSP

[2] = target: T2, Retinoic acid receptor beta (Homo sapiens, UniProt P10826); assay: Inhibition of [3H]-ATRA binding to baculovirus expressed RAR beta receptor
T2 sequence (P10826 whole entry): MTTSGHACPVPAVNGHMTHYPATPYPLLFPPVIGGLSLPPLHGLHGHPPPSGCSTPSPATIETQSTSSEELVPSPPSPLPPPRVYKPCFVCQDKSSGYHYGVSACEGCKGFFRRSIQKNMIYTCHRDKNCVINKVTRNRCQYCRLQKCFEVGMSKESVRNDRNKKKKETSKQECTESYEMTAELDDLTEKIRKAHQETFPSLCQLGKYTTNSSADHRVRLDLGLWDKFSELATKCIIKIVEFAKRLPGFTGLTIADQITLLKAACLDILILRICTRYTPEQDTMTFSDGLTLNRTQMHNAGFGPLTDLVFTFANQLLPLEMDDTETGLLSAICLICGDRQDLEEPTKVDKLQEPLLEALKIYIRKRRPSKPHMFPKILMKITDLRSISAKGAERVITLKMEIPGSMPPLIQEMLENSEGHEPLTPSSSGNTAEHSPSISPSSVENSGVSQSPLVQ

[3] = target: T3, Retinoic acid receptor gamma (Homo sapiens, UniProt P13631); assay: Inhibition of [3H]ATRA binding to baculovirus expressed RAR gamma receptor
T3 sequence (P13631 whole entry): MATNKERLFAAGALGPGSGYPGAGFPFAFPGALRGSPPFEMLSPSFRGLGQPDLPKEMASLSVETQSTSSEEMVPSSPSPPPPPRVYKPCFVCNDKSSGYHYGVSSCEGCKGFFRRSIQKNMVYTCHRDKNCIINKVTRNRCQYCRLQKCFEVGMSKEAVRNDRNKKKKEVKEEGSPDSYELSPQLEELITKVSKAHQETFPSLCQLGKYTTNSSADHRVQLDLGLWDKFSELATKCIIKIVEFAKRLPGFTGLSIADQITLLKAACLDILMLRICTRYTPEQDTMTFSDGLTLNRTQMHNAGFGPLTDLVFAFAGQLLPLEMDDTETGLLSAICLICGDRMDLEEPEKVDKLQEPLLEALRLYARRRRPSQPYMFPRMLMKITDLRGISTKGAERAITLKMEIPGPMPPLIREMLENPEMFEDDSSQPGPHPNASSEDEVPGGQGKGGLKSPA

SMILES | Kd [1] [nM] | Kd [2] [nM] | Kd [3] [nM]
Cc1ccc(C2=CCC(C)(C)c3ccc(C(=O)Nc4ccc(C(=O)O)c(F)c4)cc32)cc1 | 5.7 | 622 | 863
Cc1ccc(C2=CCC(C)(C)c3ccc(C(=O)Nc4ccc(C(=O)O)cc4)cc32)cc1 | 27 | 1020 | 3120
Cc1ccc(C2=CC(C)(C)Oc3c(Br)cc(C(=O)Nc4cc(F)c(C(=O)O)c(F)c4)cc32)cc1 | 1.5 | 898 | 10600

Other lines, results leading:

Kd [1] [nM] | Kd [2] [nM] | Kd [3] [nM] | SMILES
32 | 2260 | > 30000 | Cc1ccc(C2=CCC(C)(C)c3ccc(C(=O)Nc4cc(F)c(C(=O)O)c(F)c4)cc32)cc1
2.8 | 320 | 7260 | Cc1ccc(C2=CC(C)(C)Oc3c(Br)cc(C(=O)Nc4ccc(C(=O)O)c(F)c4)cc32)cc1
